{"source": "patent US5236837A", "about": "“Enzymatic reagent for D-malate determination” (Boehringer Mannheim GmbH, priority 1989, dated 1993)", "molecules": {"B1": {"name": "NAD+-dependent D-malate dehydrogenase (decarboxylating, E.C. 1.1.1.83) from E. coli (D-MDH, E. coli DSM 5496) (Escherichia coli K-12) (protein)", "chain": "MMKTMRIAAIPGDGIGKEVLPEGIRVLQAAAERWGFALSFEQMEWASCEYYSHHGKMMPDDWHEQLSRFDAIYFGAVGWPDTVPDHISLWGSLLKFRREFDQYVNLRPVRLFPGVPCPLAGKQPGDIDFYVVRENTEGEYSSLGGRVNEGTEHEVVIQESVFTRRGVDRILRYAFELAQSRPRKTLTSATKSNGLAISMPYWDERVEAMAENYPEIRWDKQHIDILCARFVMQPERFDVVVASNLFGDILSDLGPACTGTIGIAPSANLNPERTFPSLFEPVHGSAPDIYGKNIANPIATIWAGAMMLDFLGNGDERFQQAHNGILAAIEEVIAHGPKTPDMKGNATTPQVADAICKIILR", "notes": "two 42 kD subunits, full length, no tag"}}, "key": {"[1]": {"target": "T1, NAD+-dependent D-malate dehydrogenase (decarboxylating, E.C. 1.1.1.83) from E. coli (D-MDH, E. coli DSM 5496) (Escherichia coli, UniProt P76251)", "T1 construct": "two 42 kD subunits, full length, no tag", "T1 sequence (P76251 1-361)": "B1 chain", "assay": "Km determination and EDTA effect on the enzyme according to the invention", "format": "biochemical", "details": "EDTA 0.7 mg/ml test solution"}, "[2]": {"tested_on": "D-malic enzyme from E. coli K12 (Crookes strain)", "details": "EDTA 3.3 μmol/ml; raw extract; cited from earlier work"}, "[3]": {"tested_on": "D-malic enzyme from Pseudomonas fluorescens", "details": "cited from earlier work"}, "[4]": {"substrate": "NC(=O)c1ccc[n+]([C@@H]2O[C@H](COP(=O)([O-])OP(=O)(O)OC[C@H]3O[C@@H](n4cnc5c(N)ncnc54)[C@H](O)[C@@H]3O)[C@@H](O)[C@H]2O)c1", "assay": "Km determination and EDTA effect on the enzyme according to the invention", "format": "biochemical, E. coli", "details": "other: Tris, pH 8.5, 25° C., pH 8.5"}, "[5]": {"substrate": "O=C(O)C[C@@H](O)C(=O)O", "assay": "Km determination and EDTA effect on the enzyme according to the invention", "format": "biochemical, E. coli"}}, "note": "Like-named read-outs stand apart in the source and are kept apart here.", "data": [{"molecule": "O=C(O)CN(CCN(CC(=O)O)CC(=O)O)CC(=O)O", "note": "[EDTA]", "values": [{"measurement": "Inhibition of enzyme activity by EDTA", "setting": "[1]", "result": "not inhibited"}, {"measurement": "Inhibition of the reaction by EDTA", "setting": "[2]", "result": "inhibited"}]}, {"molecule": "O=C(O)C[C@@H](O)C(=O)O", "note": "[D-malate]", "values": [{"measurement": "Km", "setting": "[3]; read-out: Km for malate", "result": 300, "unit": "µM"}]}, {"molecule": "NC(=O)c1ccc[n+]([C@@H]2O[C@H](COP(=O)([O-])OP(=O)(O)OC[C@H]3O[C@@H](n4cnc5c(N)ncnc54)[C@H](O)[C@@H]3O)[C@@H](O)[C@H]2O)c1", "note": "[NAD^+]", "values": [{"measurement": "Km", "setting": "[3]; read-out: Km for NAD+", "result": 80, "unit": "µM"}]}, {"molecule": "B1", "values": [{"measurement": "Km", "setting": "[4]", "result": 0.4, "unit": "mmol/L"}, {"measurement": "Km", "setting": "[5]; other: HEPES, pH 9.0, 25° C., pH 9.0", "result": 1.5, "unit": "mmol/L"}, {"measurement": "Km", "setting": "[5]; other: Tris, pH 8.5, 25° C., pH 8.5", "result": 1.1, "unit": "mmol/L"}]}]}
